Our source for the inhibition values is PMC11951083, “Highly Specific Miniaturized Fluorescent Monoacylglycerol Lipase Probes Enable Translational Research” (Journal of the American Chemical Society, 2025).

The target of test [1] is T1, COX2(h) (Homo sapiens, UniProt P35354).
T1 sequence (P35354 18-604): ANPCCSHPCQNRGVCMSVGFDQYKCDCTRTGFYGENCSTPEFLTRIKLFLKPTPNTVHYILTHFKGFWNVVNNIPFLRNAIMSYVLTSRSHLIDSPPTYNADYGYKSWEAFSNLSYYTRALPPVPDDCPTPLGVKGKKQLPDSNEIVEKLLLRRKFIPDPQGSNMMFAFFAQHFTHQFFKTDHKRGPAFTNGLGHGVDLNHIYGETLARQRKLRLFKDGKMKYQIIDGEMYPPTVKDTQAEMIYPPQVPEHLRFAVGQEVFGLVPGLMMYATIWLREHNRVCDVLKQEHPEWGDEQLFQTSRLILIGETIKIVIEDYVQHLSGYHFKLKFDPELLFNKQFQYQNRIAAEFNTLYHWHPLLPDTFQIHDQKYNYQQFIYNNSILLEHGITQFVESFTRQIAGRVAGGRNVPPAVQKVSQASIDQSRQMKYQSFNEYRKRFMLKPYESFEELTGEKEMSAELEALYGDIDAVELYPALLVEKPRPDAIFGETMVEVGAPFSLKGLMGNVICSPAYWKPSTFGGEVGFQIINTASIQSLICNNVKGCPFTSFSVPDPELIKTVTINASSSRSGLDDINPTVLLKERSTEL
Briefly: COX2(h). The following applies: read-out: Inhibition COX2(h).

For test [2], the target named is T2, AR(h) (Homo sapiens, UniProt P10275).
T2 sequence (P10275 1-920): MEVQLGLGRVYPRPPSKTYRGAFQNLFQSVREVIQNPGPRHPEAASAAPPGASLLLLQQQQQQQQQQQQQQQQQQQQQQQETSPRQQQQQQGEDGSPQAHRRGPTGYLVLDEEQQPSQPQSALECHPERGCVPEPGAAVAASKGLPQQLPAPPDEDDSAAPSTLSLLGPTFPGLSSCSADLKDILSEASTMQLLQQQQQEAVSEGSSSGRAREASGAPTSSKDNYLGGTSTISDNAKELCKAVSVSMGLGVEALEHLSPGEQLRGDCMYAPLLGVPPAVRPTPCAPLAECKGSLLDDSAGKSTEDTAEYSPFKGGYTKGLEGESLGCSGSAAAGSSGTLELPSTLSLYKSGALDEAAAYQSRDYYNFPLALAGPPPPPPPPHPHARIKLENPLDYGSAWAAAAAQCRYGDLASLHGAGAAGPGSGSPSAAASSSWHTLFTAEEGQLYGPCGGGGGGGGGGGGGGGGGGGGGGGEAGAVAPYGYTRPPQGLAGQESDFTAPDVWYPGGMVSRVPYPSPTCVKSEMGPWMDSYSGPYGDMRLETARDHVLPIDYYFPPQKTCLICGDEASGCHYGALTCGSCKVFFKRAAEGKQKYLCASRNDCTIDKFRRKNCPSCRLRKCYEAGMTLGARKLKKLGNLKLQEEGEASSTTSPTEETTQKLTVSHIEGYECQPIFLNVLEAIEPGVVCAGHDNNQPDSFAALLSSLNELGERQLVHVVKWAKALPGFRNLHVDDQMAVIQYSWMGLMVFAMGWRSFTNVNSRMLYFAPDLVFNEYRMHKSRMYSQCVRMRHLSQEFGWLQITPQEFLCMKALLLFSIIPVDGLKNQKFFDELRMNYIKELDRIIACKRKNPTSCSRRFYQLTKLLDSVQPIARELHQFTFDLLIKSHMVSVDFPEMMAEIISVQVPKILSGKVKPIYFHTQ
Briefly: AR(h) (agonist radioligand). The following applies: read-out: Inhibition AR(h) (agonist radioligand).

In test [3] the target is T3, A1 (h) (Homo sapiens, UniProt P30542).
T3 sequence (P30542 1-326): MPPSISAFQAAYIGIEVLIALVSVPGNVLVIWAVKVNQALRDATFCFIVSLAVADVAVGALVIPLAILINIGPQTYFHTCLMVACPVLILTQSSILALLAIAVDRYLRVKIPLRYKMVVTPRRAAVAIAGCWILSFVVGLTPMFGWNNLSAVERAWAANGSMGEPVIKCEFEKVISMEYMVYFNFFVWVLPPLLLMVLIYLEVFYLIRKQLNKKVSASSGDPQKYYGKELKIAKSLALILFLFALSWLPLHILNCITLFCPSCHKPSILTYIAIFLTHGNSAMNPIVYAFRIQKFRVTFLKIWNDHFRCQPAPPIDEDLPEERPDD
Briefly: A1 (h) (agonist radioligand). The following applies: read-out: Inhibition A1 (h) (agonist radioligand).

Test [4] concerns the target FP (h) (Homo sapiens, UniProt P43088). Briefly: FP (h) (agonist radioligand). Particulars: read-out: Inhibition FP (h) (agonist radioligand).
Test [5] addresses D2S (h) (Homo sapiens, UniProt P14416). The test can be described thus: D2S (h) (agonist radioligand). The following applies: read-out: Inhibition D2S (h) (agonist radioligand).
Test [6] has as its target CB1 (h) (Homo sapiens, UniProt P21554). Briefly: CB1 (h) (agonist radioligand). Particulars: read-out: Inhibition CB1 (h) (agonist radioligand).
Test [7] concerns the target H1 (h) (Homo sapiens, UniProt P35367). Briefly: H1 (h) (antagonist radioligand). The following applies: read-out: Inhibition H1 (h) (antagonist radioligand).
Test [8] has as its target T4, CCK1 (CCKA) (h) (Homo sapiens, UniProt P32238).
T4 sequence (P32238 1-428): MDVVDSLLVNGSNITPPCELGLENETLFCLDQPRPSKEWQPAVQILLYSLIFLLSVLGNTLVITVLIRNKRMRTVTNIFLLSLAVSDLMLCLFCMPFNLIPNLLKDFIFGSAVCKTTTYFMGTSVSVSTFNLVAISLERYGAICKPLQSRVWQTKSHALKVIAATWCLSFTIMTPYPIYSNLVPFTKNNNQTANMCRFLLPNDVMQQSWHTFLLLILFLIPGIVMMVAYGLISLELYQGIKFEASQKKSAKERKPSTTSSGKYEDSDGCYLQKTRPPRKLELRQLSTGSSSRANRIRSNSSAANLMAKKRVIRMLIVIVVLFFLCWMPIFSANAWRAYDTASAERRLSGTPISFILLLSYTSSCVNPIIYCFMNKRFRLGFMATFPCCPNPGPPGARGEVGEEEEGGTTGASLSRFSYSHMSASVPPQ
Briefly: CCK1 (CCKA) (h) (agonist radioligand). Particulars: read-out: Inhibition CCK1 (CCKA) (h) (agonist radioligand).

In test [9] the target is N neuronal alpha4beta2 (h) (Homo sapiens, UniProt P17787+P43681). Briefly: N neuronal alpha4beta2 (h) (agonist radioligand). Particulars: read-out: Inhibition N neuronal alpha4beta2 (h) (agonist radioligand).
N neuronal alpha4beta2 (h), sequence (P43681 29-627 limits assumed): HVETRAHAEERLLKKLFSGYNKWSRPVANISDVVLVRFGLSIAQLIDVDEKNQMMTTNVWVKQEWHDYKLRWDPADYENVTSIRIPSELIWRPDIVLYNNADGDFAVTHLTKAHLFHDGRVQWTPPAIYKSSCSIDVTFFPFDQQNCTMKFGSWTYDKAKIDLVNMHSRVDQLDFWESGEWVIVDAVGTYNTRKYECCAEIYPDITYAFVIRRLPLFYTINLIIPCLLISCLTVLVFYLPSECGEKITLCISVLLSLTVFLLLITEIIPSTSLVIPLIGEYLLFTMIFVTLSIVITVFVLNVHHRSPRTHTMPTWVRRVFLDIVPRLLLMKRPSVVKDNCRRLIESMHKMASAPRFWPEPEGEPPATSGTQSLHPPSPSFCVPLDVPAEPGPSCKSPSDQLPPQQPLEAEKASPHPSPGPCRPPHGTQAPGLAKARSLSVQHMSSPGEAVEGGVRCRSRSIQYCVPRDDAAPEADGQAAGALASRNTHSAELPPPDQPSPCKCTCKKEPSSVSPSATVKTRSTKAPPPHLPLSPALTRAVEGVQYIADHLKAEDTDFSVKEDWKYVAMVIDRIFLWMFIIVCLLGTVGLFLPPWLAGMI
N neuronal alpha4beta2 (h), sequence (P17787 26-502): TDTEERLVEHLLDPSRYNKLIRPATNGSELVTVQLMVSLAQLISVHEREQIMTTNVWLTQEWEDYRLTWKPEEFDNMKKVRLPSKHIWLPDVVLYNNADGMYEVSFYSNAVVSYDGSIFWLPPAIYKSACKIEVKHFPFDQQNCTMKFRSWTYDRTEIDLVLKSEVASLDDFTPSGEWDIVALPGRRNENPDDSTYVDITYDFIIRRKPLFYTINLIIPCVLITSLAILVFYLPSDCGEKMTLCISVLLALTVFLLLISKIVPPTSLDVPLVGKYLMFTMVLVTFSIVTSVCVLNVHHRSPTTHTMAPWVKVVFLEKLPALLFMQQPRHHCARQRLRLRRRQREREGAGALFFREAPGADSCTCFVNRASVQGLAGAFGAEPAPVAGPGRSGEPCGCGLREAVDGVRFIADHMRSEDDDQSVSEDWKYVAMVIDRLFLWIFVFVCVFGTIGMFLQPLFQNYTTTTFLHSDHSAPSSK

D2S (h), sequence (P14416 1-414 isoform P14416-2): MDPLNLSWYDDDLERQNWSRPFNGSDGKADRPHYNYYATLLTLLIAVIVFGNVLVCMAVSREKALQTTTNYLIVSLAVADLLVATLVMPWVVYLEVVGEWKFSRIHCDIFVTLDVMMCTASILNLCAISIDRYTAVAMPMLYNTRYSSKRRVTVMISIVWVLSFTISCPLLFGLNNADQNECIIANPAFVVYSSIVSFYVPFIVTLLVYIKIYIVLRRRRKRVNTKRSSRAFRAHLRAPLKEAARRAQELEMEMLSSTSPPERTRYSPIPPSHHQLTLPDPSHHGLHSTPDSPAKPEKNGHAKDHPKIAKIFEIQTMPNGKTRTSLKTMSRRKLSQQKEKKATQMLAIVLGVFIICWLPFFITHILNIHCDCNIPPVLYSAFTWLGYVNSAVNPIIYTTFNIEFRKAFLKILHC
H1 (h), sequence (P35367 whole entry): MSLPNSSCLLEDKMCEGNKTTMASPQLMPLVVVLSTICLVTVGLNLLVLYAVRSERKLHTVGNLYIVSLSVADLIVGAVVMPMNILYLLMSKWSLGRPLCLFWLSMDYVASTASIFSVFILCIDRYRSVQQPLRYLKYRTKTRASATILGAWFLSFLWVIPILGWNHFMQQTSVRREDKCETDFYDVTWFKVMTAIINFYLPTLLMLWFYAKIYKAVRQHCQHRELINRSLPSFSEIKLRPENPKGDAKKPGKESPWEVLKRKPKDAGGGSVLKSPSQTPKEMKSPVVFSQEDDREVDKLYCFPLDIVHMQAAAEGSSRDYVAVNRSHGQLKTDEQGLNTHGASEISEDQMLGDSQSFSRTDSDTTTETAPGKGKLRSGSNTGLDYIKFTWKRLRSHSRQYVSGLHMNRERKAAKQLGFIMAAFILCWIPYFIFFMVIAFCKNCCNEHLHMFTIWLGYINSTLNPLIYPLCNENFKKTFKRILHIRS
FP (h), sequence (P43088 whole entry): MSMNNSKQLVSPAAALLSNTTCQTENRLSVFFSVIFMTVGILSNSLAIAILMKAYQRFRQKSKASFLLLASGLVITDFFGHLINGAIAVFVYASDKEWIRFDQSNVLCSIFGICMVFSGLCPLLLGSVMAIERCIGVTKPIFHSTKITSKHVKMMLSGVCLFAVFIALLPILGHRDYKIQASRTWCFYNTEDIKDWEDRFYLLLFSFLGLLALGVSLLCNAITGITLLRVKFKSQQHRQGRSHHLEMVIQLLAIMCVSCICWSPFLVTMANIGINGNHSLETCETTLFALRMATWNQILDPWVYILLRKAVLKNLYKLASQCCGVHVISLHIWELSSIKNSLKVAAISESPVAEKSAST
CB1 (h), sequence (P21554 whole entry): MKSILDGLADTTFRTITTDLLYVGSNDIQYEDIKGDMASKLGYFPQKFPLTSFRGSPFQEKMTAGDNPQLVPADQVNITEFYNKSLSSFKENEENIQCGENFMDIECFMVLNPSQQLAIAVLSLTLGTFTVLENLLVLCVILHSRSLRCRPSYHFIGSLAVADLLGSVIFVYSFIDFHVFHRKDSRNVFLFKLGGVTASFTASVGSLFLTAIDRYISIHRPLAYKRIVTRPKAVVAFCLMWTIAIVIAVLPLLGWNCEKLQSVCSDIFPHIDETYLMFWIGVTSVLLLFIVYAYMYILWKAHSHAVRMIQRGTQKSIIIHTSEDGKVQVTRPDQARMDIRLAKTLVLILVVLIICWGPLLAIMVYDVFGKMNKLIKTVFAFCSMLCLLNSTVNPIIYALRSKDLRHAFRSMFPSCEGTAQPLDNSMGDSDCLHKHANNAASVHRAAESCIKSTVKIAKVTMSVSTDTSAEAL

Regarding `O=C(O[C@H](CO)C(F)(F)F)N1CC2(CC(CC3=C4C=CC=[N+]4[B-](F)(F)n4cccc43)C2)C1` [Compound 1], the inhibition at 10 µM in test [1] is 45.5%; in [2], -14.2%; in test [3], -3.9%; in test [4], 11.6%; in test [5] it was 5.9%; in [6], 4.4%. Moreover, the figures for the inhibition at 10 µM in test [7], in test [8] and in test [9] were 30.4%, -3.8% and -18.3%, respectively.

Regarding `O=C(N1CC2(CC(CC3=C4C=CC=[N+]4[B-](F)(F)n4cccc43)C2)C1)N1CC2(CC(n3cnc(C4CC4)n3)C2)C1` [Compound 5], the inhibition at 10 µM in [1] is 23.8%; in test [2], -19.8%; in test [3], 1.3%; in test [4], 10.4%; in test [5] it was 12.6%; in test [6], 9.9%. In addition, the inhibition at 10 µM in test [7] was 51.5%; in [8], -24.7%; in [9], -16.6%.

`O=C1CO[C@H]2CCN(C(=O)N3CC4(CC(CC5=C6C=CC(c7ccc[nH]7)=[N+]6[B-](F)(F)n6cccc65)C4)C3)C[C@H]2N1` [Compound 4a]: the inhibition at 10 µM in [1] was 48.9%; in test [2] it was -1.4%; in [3] it was 8.7%; in test [4], 16.3%; in [5] it was 3.3%; in [6] it was -2.7%. The inhibition at 10 µM in test [7] was 1.3%; in test [8], -22.1%; in [9] it was -0.6%.

For the compound `O=C(OC(C(F)(F)F)C(F)(F)F)N1CC2(CC(CC3=C4C=CC(c5ccc[nH]5)=[N+]4[B-](F)(F)n4cccc43)C2)C1` [Compound 2a], the inhibition at 10 µM was 49.5% in test [1]; 6% in test [2]; -1% in [3]; 4.4% in test [4]; -2.6% in test [5]; 6.3% in test [6]. The inhibition at 10 µM in test [7] came out at 4.4%; in test [8], 11.9%; in test [9], 4.2%.

As to `O=C(OC(C(F)(F)F)C(F)(F)F)N1CC2(CC(CC3=C4C=CC=[N+]4[B-](F)(F)n4cccc43)C2)C1` [Compound 2], the inhibition at 10 µM in test [1] is 31.9%; in [2], 4.2%; in test [3] it was 4.4%; in test [4], 6.5%; in [5], -4.1%; in [6], -16.1%. Moreover, the inhibition at 10 µM is 5.5% in test [7], -8.8% in test [8] and -1.7% in test [9].

By inhibition is commonly meant the change of the read-out against control, counted positive when it falls.
